Reference: article PMC12239475, “Bioprocessing and characterization of thermostable phytase from Aspergillus terreus, an endophyte of Catharanthus roseus, with a potential activity to hydrolyze phytic acid in wheat bran” (BMC Biotechnology, 2025)

Test system: T1, phytase from A. terreus
T1 construct: gene phyA; native, secreted; purified from solid-state culture on wheat bran (acetone, Sephadex G100, Sepharose 4B); 85 kDa subunit by SDS-PAGE
Experiment: released inorganic phosphate, ammonium molybdate colorimetry at […] nm
Type: biochemical, Aspergillus terreus
Details: standard assay: potassium phosphate buffer pH 7.4, 40 °C, 15 min, table title misprinted as A. flavus GST

| SMILES | Km |
| --- | --- |
| Nc1ncnc2c1ncn2[C@@H]1O[C@H](COP(=O)(O)OP(=O)(O)OP(=O)(O)O)[C@@H](O)[C@H]1O [ATP] | 190 µM |
| O=P(O)(O)O[C@H]1[C@H](OP(=O)(O)O)[C@@H](OP(=O)(O)O)[C@H](OP(=O)(O)O)[C@@H](OP(=O)(O)O)[C@H]1OP(=O)(O)O [Phytic acid] | 25 µM |
| O=P(O)(O)OC[C@H]1OC(O)(COP(=O)(O)O)[C@@H](O)[C@@H]1O (stereo partly drawn) [Fructose 1,6-diphosphate] | 280 µM |
